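Grown in 96-well plates, cells were treated for 48 hours with each compound at five concentrations. Insufficient inhibition: endpoint recorded as highest concentration tested. At the GI50, growth is halved. The concentration for full growth arrest is given as TGI.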
Key:
Assay in all cases: DTP human tumour cell line panel, 48 h
[1] = tested on: TK-10 renal
[2] = tested on: KM12 colon
[3] = tested on: CCRF-CEM leukemia
[4] = tested on: U251 CNS
[5] = tested on: COLO 205 colon
[6] = tested on: SNB-19 CNS
[7] = tested on: SF-268 CNS
[8] = tested on: M14 melanoma
[9] = tested on: SK-OV-3 ovarian
[10] = tested on: HCC-2998 colon
[11] = tested on: T-47D breast
[12] = tested on: MDA-MB-468 breast
[13] = tested on: IGROV1 ovarian
[14] = tested on: OVCAR-5 ovarian
[15] = tested on: MALME-3M melanoma
[16] = tested on: SNB-75 CNS
[17] = tested on: MCF7 breast
[18] = tested on: SF-539 CNS
[19] = tested on: HL-60(TB) leukemia
[20] = tested on: SN12C renal
[21] = tested on: NCI-H23 lung
[22] = tested on: MOLT-4 leukemia
[23] = tested on: EKVX NSCLC
[24] = tested on: OVCAR-3 ovarian
[25] = tested on: UACC-62 melanoma
[26] = tested on: RXF 393 renal
[27] = tested on: NCI-H460 lung
[28] = tested on: HCT-116 colon
[29] = tested on: HOP-62 NSCLC
[30] = tested on: LOX IMVI melanoma
[31] = tested on: A549 NSCLC
[32] = tested on: PC-3 prostate
[33] = tested on: UO-31 renal
[34] = tested on: NCI-H226 lung
[35] = tested on: CAKI-1 renal
[36] = tested on: NCI/ADR-RES ovarian
[37] = tested on: ACHN renal
[38] = tested on: SK-MEL-28 melanoma
[39] = tested on: SK-MEL-5 melanoma
[40] = tested on: A498 renal
[41] = tested on: SK-MEL-2 melanoma
[42] = tested on: SW-620 colon
[43] = tested on: MDA-MB-435
[44] = tested on: RPMI-8226 leukemia
[45] = tested on: UACC-257 melanoma
[46] = tested on: OVCAR-4 ovarian
[47] = tested on: NCI-H522 lung
[48] = tested on: MDA-MB-231 breast
[49] = tested on: K-562 leukemia
[50] = tested on: HCT-15 colon
[51] = tested on: BT-549 breast
[52] = tested on: HS 578T breast
[53] = tested on: SF-295 CNS
[54] = tested on: 786-0 renal
[55] = tested on: HT29 colon
[56] = tested on: DU-145 prostate
[57] = tested on: OVCAR-8 ovarian
[58] = tested on: HOP-92 NSCLC

Compound: CCN(CC)CCOc1ccc(Nc2ncc3cc(-c4ccc(O)c(C#N)c4)c(=O)n(C)c3n2)cc1
- GI50 [1]: > 100 µM
- TGI [1]: > 100 µM
- GI50 [2]: 28.3 µM
- TGI [2]: > 100 µM
- GI50 [3]: 16.1 µM
- TGI [3]: 53.5 µM
- GI50 [4]: 18.6 µM
- TGI [4]: 35.6 µM
- GI50 [5]: 25 µM
- TGI [5]: > 100 µM
- GI50 [6]: 25.8 µM
- TGI [6]: 57.3 µM
- GI50 [7]: 24 µM
- TGI [7]: > 100 µM
- GI50 [8]: 13.4 µM
- TGI [8]: 27.1 µM
- GI50 [9]: > 100 µM
- TGI [9]: > 100 µM
- GI50 [10]: > 100 µM
- TGI [10]: > 100 µM
- GI50 [11]: 15.6 µM
- TGI [11]: 38.9 µM
- GI50 [12]: 15.6 µM
- TGI [12]: 30.2 µM
- GI50 [13]: 68 µM
- TGI [13]: > 100 µM
- GI50 [14]: > 100 µM
- TGI [14]: > 100 µM
- GI50 [15]: 15.1 µM
- TGI [15]: 28.5 µM
- GI50 [16]: 2.55 µM
- TGI [16]: > 100 µM
- GI50 [17]: 15.3 µM
- TGI [17]: 32.9 µM
- GI50 [18]: 17.8 µM
- TGI [18]: 64.3 µM
- GI50 [19]: > 100 µM
- TGI [19]: > 100 µM
- GI50 [20]: 62.3 µM
- TGI [20]: > 100 µM
- GI50 [21]: > 100 µM
- TGI [21]: > 100 µM
- GI50 [22]: 17.4 µM
- TGI [22]: 66.4 µM
- GI50 [23]: > 100 µM
- TGI [23]: > 100 µM
- GI50 [24]: > 100 µM
- TGI [24]: > 100 µM
- GI50 [25]: 15.4 µM
- TGI [25]: 29.3 µM
- GI50 [26]: 3.28 µM
- TGI [26]: 14.1 µM
- GI50 [27]: 37.5 µM
- TGI [27]: > 100 µM
- GI50 [28]: 30.7 µM
- TGI [28]: > 100 µM
- GI50 [29]: > 100 µM
- TGI [29]: > 100 µM
- GI50 [30]: 22.6 µM
- TGI [30]: > 100 µM
- GI50 [31]: > 100 µM
- TGI [31]: > 100 µM
- GI50 [32]: > 100 µM
- TGI [32]: > 100 µM
- GI50 [33]: > 100 µM
- TGI [33]: > 100 µM
- GI50 [34]: 13 µM
- TGI [34]: 53.4 µM
- GI50 [35]: 48 µM
- TGI [35]: > 100 µM
- GI50 [36]: > 100 µM
- TGI [36]: > 100 µM
- GI50 [37]: 49.3 µM
- TGI [37]: > 100 µM
- GI50 [38]: 17.2 µM
- TGI [38]: 31.5 µM
- GI50 [39]: 13.9 µM
- TGI [39]: 27.2 µM
- GI50 [40]: 62.6 µM
- TGI [40]: > 100 µM
- GI50 [41]: 15.7 µM
- TGI [41]: 31.9 µM
- GI50 [42]: 55.4 µM
- TGI [42]: > 100 µM
- GI50 [43]: 18.4 µM
- TGI [43]: 36.5 µM
- GI50 [44]: 26.7 µM
- TGI [44]: > 100 µM
- GI50 [45]: 18.8 µM
- TGI [45]: 37.9 µM
- GI50 [46]: > 100 µM
- TGI [46]: > 100 µM
- GI50 [47]: 17.4 µM
- TGI [47]: 35 µM
- GI50 [48]: 19.3 µM
- TGI [48]: > 100 µM
- GI50 [49]: 5.45 µM
- TGI [49]: > 100 µM
- GI50 [50]: > 100 µM
- TGI [50]: > 100 µM
- GI50 [51]: 24.8 µM
- TGI [51]: 59.3 µM
- GI50 [52]: 6.77 µM
- TGI [52]: 30.8 µM
- GI50 [53]: > 100 µM
- TGI [53]: > 100 µM
- GI50 [54]: 15 µM
- TGI [54]: 29 µM
- GI50 [55]: 9.92 µM
- TGI [55]: 41.3 µM
- GI50 [56]: > 100 µM
- TGI [56]: > 100 µM
- GI50 [57]: > 100 µM
- TGI [57]: > 100 µM
- GI50 [58]: 4.46 µM
- TGI [58]: 22.8 µM

Source: PubChem BioAssay (NCI)
